Laboratory results published in patent US20260053171A1, “METHANOGEN INHIBITORS” (AGRIZERONZ LIMITED PARTNERSHIP, priority 2022, published 2026).

Tested on: methane production in rumen fluid
Test: Rumen in vitro (RIV) assay, methane production from rumen fluid incubations
Type: cell-based, cattle
Details: Bos taurus, read-out: RIV % methane reduction +/− SD
Outline: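 Rumen fluid from two fistulated cattle diluted 12 ml in 48 ml buffer with ryegrass substrate, incubated in sealed bottles at 39° C for 24-48 h in duplicate. Inhibitors added in DMF (stocks 1000-fold above highest assay level); total gas, methane and H2 measured automatically; 30 μM BES positive control, no-inhibitor negative control.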

Q: For `CCC(C)Oc1ccc(-c2ccc(C3=NN(C(=O)CCC(=O)O)C(c4ccc5nccnc5c4)C3)cc2)cc1` (stereo not shown) [Compound 83, 4-(3-(4′-(sec-Butoxy)-[1,1′-biphenyl]-4-yl)-5-(quinoxalin-6-yl)-4,5-dihydro-1H-pyrazol-1-yl)-4-oxobutanoic acid], which inhibition at 2 µM is on record?
A: < 5%

Q: And the inhibition at 10 µM?
A: 69.2 ± 1.8%

Q: How did the inhibition at 2 µM turn out when `CS(=O)(=O)NC(=O)CCC(=O)N1N=C(c2ccc(OC(F)(F)F)cc2)CC1c1ccc2nccnc2c1` (stereo not shown) [Compound 56] was run?
A: < 5%

Q: And the inhibition at 10 µM?
A: 72.4 ± 10.6%

Q: What about the inhibition at 50 µM of the same compound?
A: 98.6%

Q: For `O=C(O)CCC(=O)N1N=C(c2ccc(Cl)cc2Cl)CC1c1ccc2nccnc2c1` (stereo not shown) [Compound 10, 4-(3-(2,4-Dichlorophenyl)-5-(quinoxalin-6-yl)-4,5-dihydro-1H-pyrazol-1-yl)-4-oxobutanoic acid], which inhibition at 50 µM is on record?
A: 64 ± 0.6%

Q: With `CC(C)(C)c1ccc(-c2ccc(C3=NN(C(=O)CCC(=O)O)C(c4ccc5nccnc5c4)C3)cc2)cc1` (stereo not shown) [Compound 87, 4-(3-(4′-(tert-Butyl)-[1,1′-biphenyl]-4-yl)-5-(quinoxalin-6-yl)-4,5-dihydro-1H-pyrazol-1-yl)-4-oxobutanoic acid] as the compound, how does the inhibition at 10 µM read?
A: 6 ± 0.5%

Q: What does the source list for `CC(C)Oc1ccc(-c2ccc(C3=NN(C(=O)CCC(=O)O)C(c4ccc5nccnc5c4)C3)cc2)cc1F` (stereo not shown) [Compound 100, 4-(3-(3′-Fluoro-4′-isopropoxy-[1,1′-biphenyl]-4-yl)-5-(quinoxalin-6-yl)-4,5-dihydro-1H-pyrazol-1-yl)-4-oxobutanoic acid]?
A: inhibition at 2 µM: 25 ± 7.8%; inhibition at 10 µM: 89.2 ± 3%

Q: How did the inhibition at 10 µM turn out when `COc1cccc(-c2ccc(C3=NN(C(=O)CCC(=O)O)C(c4ccc5nccnc5c4)C3)cc2)c1` (stereo not shown) [Compound 90, 4-(3-(3′-Methoxy-[1,1′-biphenyl]-4-yl)-5-(quinoxalin-6-yl)-4,5-dihydro-1H-pyrazol-1-yl)-4-oxobutanoic acid] was run?
A: 6.9 ± 2.2%

Q: And the inhibition at 50 µM?
A: 84.2%

Q: With `O=C(CCC(=O)N1N=C(c2ccc(Cl)cc2)CC1c1ccc2nccnc2c1)NS(=O)(=O)N1CCCC1` (stereo not shown) [Compound 128, 4-(3-(4-Chlorophenyl)-5-(quinoxalin-6-yl)-4,5-dihydro-1H-pyrazol-1-yl)-4-oxo-N-(pyrrolidin-1-ylsulfonyl) butanamide] as the compound, how does the inhibition at 10 µM read?
A: 53 ± 5.7%

Q: `O=C(O)/C=C/C(=O)N1N=C(c2ccc(Cl)cc2)CC1c1ccc2nccnc2c1` (stereo not shown) [Compound 51, (E)-4-(3-(4-Chlorophenyl)-5-(quinoxalin-6-yl)-4,5-dihydro-1H-pyrazol-1-yl)-4-oxobut-2-enoic acid] was tested. Which inhibition at 50 µM did it give?
A: 57.1 ± 7.5%

Q: Which results are given for `O=C(CCC(=O)N1N=C(c2cccc(-c3ccccc3)c2)CC1c1ccc2nccnc2c1)NS(=O)(=O)c1ccccc1` (stereo not shown) [Compound 122, 4-(3-([1,1′-Biphenyl]-3-yl)-5-(quinoxalin-6-yl)-4,5-dihydro-1H-pyrazol-1-yl)-4-oxo-N-(phenylsulfonyl) butanamide]?
A: inhibition at 2 µM: 7.4 ± 4.7%; inhibition at 10 µM: 78.9 ± 2.3%

Q: `O=C(O)CCC(=O)N1N=C(c2ccc(-c3ccc(CC(F)(F)F)cc3)cc2)CC1c1ccc2nccnc2c1` (stereo not shown) [Compound 88, 4-Oxo-4-(5-(quinoxalin-6-yl)-3-(4′-(2,2,2-trifluoroethyl)-[1,1′-biphenyl]-4-yl)-4,5-dihydro-1H-pyrazol-1-yl)butanoic acid] was tested. Which inhibition at 2 µM did it give?
A: < 5%

Q: What about the inhibition at 10 µM of the same compound?
A: 83 ± 1.1%

Q: With `O=C(O)CCC(=O)N1N=C(c2ccc(-c3ccc4c(c3)OCO4)cc2)CC1c1ccc2nccnc2c1` (stereo not shown) [Compound 103, 4-(3-(4-(Benzo[d][1,3]dioxol-5-yl)phenyl)-5-(quinoxalin-6-yl)-4,5-dihydro-1H-pyrazol-1-yl)-4-oxobutanoic acid] as the compound, how does the inhibition at 10 µM read?
A: 24.8 ± 6.2%

Q: How did the inhibition at 50 µM turn out when `COc1cc(C2CC(c3ccc(Cl)cc3)=NN2C(=O)CCC(=O)O)ccc1F` (stereo not shown) [Compound 48, 4-(3-(4-Chlorophenyl)-5-(4-fluoro-3-methoxyphenyl)-4,5-dihydro-1H-pyrazol-1-yl)-4-oxobutanoic acid] was run?
A: 43.6 ± 4.5%

Q: What does the source list for `O=C(O)CCC(=O)N1N=C2c3cc(-c4ccccc4)ccc3CCC2C1c1ccc2nccnc2c1` (stereo not shown) [Compound 74, 4-Oxo-4-(8-phenyl-3-(quinoxalin-6-yl)-3,3a,4,5-tetrahydro-2H-benzo[g]indazol-2-yl)butanoic acid]?
A: inhibition at 2 µM: 9 ± 1.9%; inhibition at 10 µM: 87.8 ± 0.7%; inhibition at 50 µM: 97.2 ± 0.5%

Q: `CC(C)c1ccc(C2=NN(C(=O)CCC(=O)O)C(c3ccc4nccnc4c3)C2)cc1` (stereo not shown) [Compound 3, 4-(3-(4-Isopropylphenyl)-5-(quinoxalin-6-yl)-4,5-dihydro-1H-pyrazol-1-yl)-4-oxobutanoic acid] was tested. Which inhibition at 10 µM did it give?
A: 5.5 ± 2.8%

Q: What about the inhibition at 50 µM of the same compound?
A: 78.6 ± 1.1%

Q: How did the inhibition at 10 µM turn out when `O=C(O)CCC(=O)N1N=C(c2ccc(-c3ccc4[nH]ccc4c3)cc2)CC1c1ccc2nccnc2c1` (stereo not shown) [Compound 106, 4-(3-(4-(1H-Indol-5-yl)phenyl)-5-(quinoxalin-6-yl)-4,5-dihydro-1H-pyrazol-1-yl)-4-oxobutanoic acid] was run?
A: < 5%

Q: And the inhibition at 50 µM?
A: 26 ± 2.5%

Q: For `COc1ccc(-c2ccc(C3=NN(C(=O)CCC(=O)O)C(c4ccc5nccnc5c4)C3)cc2)cc1` (stereo not shown) [Compound 25, 4-(3-(4′-Methoxy-[1,1′-biphenyl]-4-yl)-5-(quinoxalin-6-yl)-4,5-dihydro-1H-pyrazol-1-yl)-4-oxobutanoic acid], which inhibition at 2 µM is on record?
A: < 5%

Q: And the inhibition at 10 µM?
A: 83.7 ± 0.4%

Q: For `O=C(O)CCC(=O)N1N=C2c3ccc(-c4ccc(OC(F)(F)F)cc4)cc3CCC2C1c1ccc2nccnc2c1` (stereo not shown) [Compound 76, 4-Oxo-4-(3-(quinoxalin-6-yl)-7-(4-(trifluoromethoxy)phenyl)-3,3a,4,5-tetrahydro-2H-benzo[g]indazol-2-yl)butanoic acid], which inhibition at 2 µM is on record?
A: 21.1 ± 3.2%

Q: What about the inhibition at 10 µM of the same compound?
A: 77.3 ± 1.3%

Q: And the inhibition at 50 µM?
A: 96.5%

Q: How did the inhibition at 10 µM turn out when `O=C(O)CCC(=O)N1N=C2c3ccc(Cl)cc3CCC2C1c1ccc2nccnc2c1` (stereo not shown) [Compound 73, 4-(7-Chloro-3-(quinoxalin-6-yl)-3,3a,4,5-tetrahydro-2H-benzo[g]indazol-2-yl)-4-oxobutanoic acid] was run?
A: 18.8 ± 1.6%

Q: And the inhibition at 50 µM?
A: 78 ± 1.9%

Q: Which inhibition at 10 µM does the source give for `O=C(O)CCC(=O)N1N=C(c2ccc(-c3ccccc3)cc2)CC1c1ccc2c(c1)OCCO2` (stereo not shown) [Compound 40, 4-(3-([1,1′-Biphenyl]-4-yl)-5-(2,3-dihydrobenzo[b][1,4]dioxin-6-yl)-4,5-dihydro-1H-pyrazol-1-yl)-4-oxobutanoic acid] here?
A: 39.8 ± 1.3%

Q: And the inhibition at 50 µM?
A: 89.5 ± 1.4%

Q: How did the inhibition at 10 µM turn out when `COc1cccc(-c2cccc(C3=NN(C(=O)CCC(=O)O)C(c4ccc5nccnc5c4)C3)c2)c1` (stereo not shown) [Compound 97, 4-(3-(3′-Methoxy-[1,1′-biphenyl]-3-yl)-5-(quinoxalin-6-yl)-4,5-dihydro-1H-pyrazol-1-yl)-4-oxobutanoic acid] was run?
A: 5.4 ± 0.2%

Q: What about the inhibition at 50 µM of the same compound?
A: 76 ± 1.4%

Q: Which inhibition at 50 µM does the source give for `O=C(O)CCC(=O)N1N=C(c2ccc(Cl)cc2)CC1c1ccc2cccnc2c1` (stereo not shown) [Compound 34, 4-(3-(4-Chlorophenyl)-5-(quinolin-7-yl)-4,5-dihydro-1H-pyrazol-1-yl)-4-oxobutanoic acid] here?
A: 22 ± 2.1%

Q: How did the inhibition at 2 µM turn out when `O=C(O)CCC(=O)N1N=C2c3ccc(-c4ccccc4)cc3CCC2C1c1ccc2nccnc2c1` (stereo not shown) [Compound 75, 4-Oxo-4-(7-phenyl-3-(quinoxalin-6-yl)-3,3a,4,5-tetrahydro-2H-benzo[g]indazol-2-yl)butanoic acid] was run?
A: 15.8 ± 4.5%

Q: And the inhibition at 10 µM?
A: 87.5 ± 0.6%

Q: What about the inhibition at 50 µM of the same compound?
A: 92.8 ± 0.5%

Q: What does the source list for `O=C(O)CCC(=O)N1N=C(c2ccc(-c3ccc(F)cc3)cc2)CC1c1ccc2nccnc2c1` (stereo not shown) [Compound 16, 4-(3-(4′-Fluoro-[1,1′-biphenyl]-4-yl)-5-(quinoxalin-6-yl)-4,5-dihydro-1H-pyrazol-1-yl)-4-oxobutanoic acid]?
A: inhibition at 2 µM: < 5%; inhibition at 10 µM: 77.5 ± 2.1%; inhibition at 50 µM: 96.6 ± 0.2%

Q: How did the inhibition at 10 µM turn out when `CN(C)S(=O)(=O)NC(=O)CCC(=O)N1N=C(c2ccc(OC(F)(F)F)cc2)CC1c1ccc2nccnc2c1` (stereo not shown) [Compound 126, N—(N,N-Dimethylsulfamoyl)-4-oxo-4-(5-(quinoxalin-6-yl)-3-(4-(trifluoromethoxy)phenyl)-4,5-dihydro-1H-pyrazol-1-yl) butanamide] was run?
A: 25.5 ± 3.8%

Q: How did the inhibition at 10 µM turn out when `O=C(O)CCC(=O)N1N=C(c2ccc(Cl)cc2)CC1c1ccc2nsnc2c1` (stereo not shown) [Compound 36, 4-(5-(Benzo[c][1,2,5]thiadiazol-5-yl)-3-(4-chlorophenyl)-4,5-dihydro-1H-pyrazol-1-yl)-4-oxobutanoic acid] was run?
A: 33.4 ± 2.3%

Q: And the inhibition at 50 µM?
A: 91.3 ± 0.2%

Q: `CC(C)S(=O)(=O)NC(=O)CCC(=O)N1N=C(c2ccc(OC(F)(F)F)cc2)CC1c1ccc2nccnc2c1` (stereo not shown) [Compound 118, N-(Isopropylsulfonyl)-4-oxo-4-(5-(quinoxalin-6-yl)-3-(4-(trifluoromethoxy)phenyl)-4,5-dihydro-1H-pyrazol-1-yl) butanamide] was tested. Which inhibition at 10 µM did it give?
A: 29.7 ± 6%

Q: Which inhibition at 10 µM does the source give for `CC(C)(C)S(=O)(=O)NC(=O)CCC(=O)N1N=C(c2ccc(Cl)cc2)CC1c1ccc2nccnc2c1` (stereo not shown) [Compound 121, N-(tert-Butylsulfonyl)-4-(3-(4-chlorophenyl)-5-(quinoxalin-6-yl)-4,5-dihydro-1H-pyrazol-1-yl)-4-oxobutanamide] here?
A: 9.8 ± 2.2%

Q: What does the source list for `O=C(O)c1ccc(N2N=C(c3ccc(Cl)cc3)CC2c2ccc3nccnc3c2)cc1` (stereo not shown) [Compound 115, 4-(3-(4-Chlorophenyl)-5-(quinoxalin-6-yl)-4,5-dihydro-1H-pyrazol-1-yl)benzoic acid]?
A: inhibition at 10 µM: 20.1 ± 1.1%; inhibition at 50 µM: 84 ± 10.6%

Q: `O=C(O)CCC(=O)N1N=C(c2ccccc2-c2ccccc2)CC1c1ccc2nccnc2c1` (stereo not shown) [Compound 12, 4-(3-([1,1′-Biphenyl]-2-yl)-5-(quinoxalin-6-yl)-4,5-dihydro-1H-pyrazol-1-yl)-4-oxobutanoic acid] was tested. Which inhibition at 10 µM did it give?
A: 51.6 ± 1.5%

Q: What about the inhibition at 50 µM of the same compound?
A: 95.9 ± 0.9%

Q: For `O=C(O)CCC(=O)N1N=C(c2ccccc2)CC1c1ccc2nccnc2c1` (stereo not shown) [Compound 1A, 4-Oxo-4-(3-phenyl-5-(quinoxalin-6-yl)-4,5-dihydro-1H-pyrazol-1-yl)butanoic acid], which inhibition at 50 µM is on record?
A: < 5%

Q: For `O=C(O)CCC(=O)N1N=C(c2ccc(Cl)cc2)CC1c1ccc(F)c(F)c1` (stereo not shown) [Compound 112, 4-(3-(4-Chlorophenyl)-5-(3,4-difluorophenyl)-4,5-dihydro-1H-pyrazol-1-yl)-4-oxobutanoic acid], which inhibition at 50 µM is on record?
A: 21.7 ± 0.9%
